From PMC6099615, “Anti-glycation, Carbonyl Trapping and Anti-inflammatory Activities of Chrysin Derivatives” (Molecules : A Journal of Synthetic Chemistry and Natural …, 2018)
Converted amounts (≈) assume the structure as drawn. Marks after values point to notes of the source that are not given here. One block for each compound: values may come before it.

What was measured:
[1] = test system: Amadori compound formation; test: Hemoglobin-δ-gluconolactone assay of Amadori compound formation; assay type: biochemical; set-up: inhibition rate of Amadori compound formation: dose or concentration left out as unconfirmed; details: for IC50: early stage of AGE formation; for inhibitory activity on Amadori compound formation, fold higher than positive control AG: relative to Aminoguanidine hydrochloride (IC50 = 109.74 μM)
AGE formation = test: Bovine serum albumin-methylglyoxal assay on AGE formation; assay type: biochemical; details: for IC50: BSA-methylglyoxal, 37 °C, 48 h
Experimental: Bovine serum albumin (50 mg/mL) was incubated at 37 °C for 48 h with methylglyoxal (100 mM) in sodium phosphate buffer (0.1 M, pH 7.4) containing 0.2 g/L NaN3 in the presence of various concentrations of the compounds (including a control).
(§1) This test was used to evaluate the ability of samples to inhibit cross-linking of the GK peptide in the presence of D-ribose using the method described by Hwang et al. The GK peptide (26.7 mg/mL) was incubated with D-ribose (200 mg/mL) in sodium phosphate buffer (0.5 M, pH 7.4) containing 0.2 g/L NaN3 under sterile conditions at 37 °C for 72 h. […] All reagents and samples were sterilized by filtration through […] membrane filters. The fluorescence intensity was measured at an excitation wavelength of 355 nm and an emission wavelength of 460 nm with a Luminescence spectrometer LS50B (Perkin-Elmer Ltd., Buckinghamshire, England). AG was used as a positive control.

AGEs cross-linking = test: N-acetyl-glycyl-lysine-methyl ester D-ribose assay on AGE cross-linking; assay type: biochemical; details: for IC50: GK peptide-D-ribose, 37 °C, 72 h
Experimental: as §1

[2] = Water solubility analysis; assay type: physicochemical; details: for water solubility, fold higher than CS: relative to CS; for solubility at 1 h: thermodynamic from solid, distilled water, 37 °C, sonication 1 h
Experimental: CS and derivatives were dissolved in distilled water and incubated at 37 °C with sonication for 1 h to maximize solubility. After sonication, undissolved samples were eliminated by centrifugation (7000× g, 37 °C, 5 min). The supernatants were diluted in methanol and filtered through a 0.45 μm disposable syringe filter (Advantec, Dublin, CA, USA) to analyze the concentration of the samples using HPLC analysis.

[3] = oral administration; cited from earlier work
[4] = test system: NO production in LPS-induced RAW 264.7 cells; test: NO generation in LPS-induced RAW 264.7 cells (Griess); assay type: cell-based; details: 24 h
Experimental: The cytotoxicity of CS and derivatives on RAW 264.7 cells was examined using the MTS assay kit. Cells (1.6 × 10^4/well) were cultured in 96-well plates and treated with samples (10, 25, and 100 μM) for 12, 24, 48, and 72 h. After incubation, 20 μL/well of MTS solution was incubated for 90 min at 37 °C in a humidified 5% CO2 atmosphere. The optical density at 490 nm was measured three times using an EL-800 Universal microplate reader (Bio-Tek Instrument Inc., Winooski, VT, USA). Cell viability of the untreated group was set to 100%. RAW 264.7 cells were seeded into 12-well plates at 4 × 10^5-cells/well, and then incubated with LPS (1 μg/mL) and various concentrations of samples for 24 h. The concentration of nitric oxide (NO) in the medium was measured using the Griess reagent system, as described by the manufacturer. The production of NO was measured at 570 nm using an EL-800 Universal microplate reader (Bio-Tek Instrument Inc., Winooski, VT, USA), and was compared with a sodium nitrite standard calibration curve.

[5] = MGO trapping capacity by HPLC (kinetic study of MGO-conjugated adducts)
Experimental: […] The incubated mixture was filtered using a Microcon YM-10 centrifugal filter unit by centrifugation at 5167× g for 30 min at 4 °C. The filtrate was subsequently analyzed by high-performance liquid chromatography (HPLC) using the methods mentioned in the HPLC analysis section. The samples were then stored at −80 °C for further use.
HPLC was performed on an Agilent1100 series system equipped with a diode-array detector (DAD; Agilent, Sunnyvale, CA, USA) consisting of a vacuum degasser (G1322A), a quaternary pump (G1311A), an auto-sampler (G1313A), a thermostat column compartment (G1316A), and a DAD (G1315B). […] Sample injection volume was 10 μL. The samples were eluted with acidified water (0.1% trifluoroacetic acid, A) and MeOH (B) at a flow rate of 0.7 mL/min. The optimized gradient chromatographic conditions were 5–100% B at 0–40 min; 100–5% B at 40–42 min; and isocratic 5% B at 42–45 min. The detector monitored the eluent at a wavelength of 280 nm.

[6] = chrysin:MGO 1:0.1, incubation 1 h
[7] = chrysin:MGO 1:0.1, incubation 3 h
[8] = chrysin:MGO 1:0.1, incubation 6 h
[9] = chrysin:MGO 1:0.1, incubation 12 h
[10] = chrysin:MGO 1:0.1, incubation 36 h
[11] = chrysin:MGO 1:0.1, incubation 48 h
[12] = chrysin:MGO 1:0.5, incubation 1 h
[13] = chrysin:MGO 1:0.5, incubation 3 h
[14] = chrysin:MGO 1:0.5, incubation 6 h
[15] = chrysin:MGO 1:0.5, incubation 12 h
[16] = chrysin:MGO 1:0.5, incubation 36 h
[17] = chrysin:MGO 1:0.5, incubation 48 h
[18] = chrysin:MGO 1:1, incubation 1 h
[19] = chrysin:MGO 1:1, incubation 3 h
[20] = chrysin:MGO 1:1, incubation 6 h
[21] = chrysin:MGO 1:1, incubation 12 h
[22] = chrysin:MGO 1:1, incubation 36 h
[23] = chrysin:MGO 1:1, incubation 48 h
[24] = chrysin:MGO 1:5, incubation 1 h
[25] = chrysin:MGO 1:5, incubation 3 h
[26] = chrysin:MGO 1:5, incubation 6 h
[27] = chrysin:MGO 1:5, incubation 12 h
[28] = chrysin:MGO 1:5, incubation 36 h
[29] = chrysin:MGO 1:5, incubation 48 h
[30] = chrysin:MGO 1:10, incubation 1 h
[31] = chrysin:MGO 1:10, incubation 3 h
[32] = chrysin:MGO 1:10, incubation 6 h
[33] = chrysin:MGO 1:10, incubation 12 h
[34] = chrysin:MGO 1:10, incubation 12 h, listed as CS
[35] = chrysin:MGO 1:10, incubation 36 h
[36] = chrysin:MGO 1:10, incubation 48 h
[37] = chrysin:MGO 1:10, incubation 48 h, listed as CS
[38] = chrysin:MGO 1:10, incubation 48 h, listed as chrysin

Structure (SMILES): CC(=O)Oc1cc(O)c2c(=O)cc(-c3ccccc3)oc2c1 [7-O-Acetylchrysin, 7-O-acetylchrysin]
IC50 [1]: 23.5 µM
inhibitory activity on Amadori compound formation, fold higher than positive control AG [1]: 4.66 fold
IC50 (AGE formation): 21.6 µM
IC50 (AGEs cross-linking): > 2000 µM
water solubility, fold higher than CS [2]: 2.87 fold
solubility at 1 h [2]: 86 µM (≈ 25.5 µg/mL)

Structure (SMILES): C[N+](C)(C)C[C@H](O)CC(=O)[O-] [L-carnitine]
bioavailability [3]: 14–18%

Structure (SMILES): CC(=O)Oc1cc(OC(C)=O)c2c(=O)cc(-c3ccccc3)oc2c1 [5,7-Di-O-acetylchrysin, 5,7-di-O-acetylchrysin]
inhibition rate of Amadori compound formation ([1]; dose-dependent): 1.76–55.13%
IC50 [1]: 0.26 µM
inhibitory activity on Amadori compound formation, fold higher than positive control AG [1]: 422.07 fold
inhibitory activity on Amadori compound formation, fold higher than CS ([1]; relative to CS): 66.96 fold
IC50 (AGE formation): 0.91 µM
IC50 (AGEs cross-linking): 22.3 µM
water solubility, fold higher than CS [2]: 8.83 fold
solubility at 1 h [2]: 265 µM (≈ 89.7 µg/mL)
inhibition of NO [4]: concentration-dependent inhibition

IC50 [1]: 7.88 µM
IC50 (AGE formation): 41.8 µM
IC50 (AGEs cross-linking): 39.9 µM
solubility at 1 h [2]: 11 µM (≈ 3.11 µg/mL)
Structure (SMILES): COc1cc(OC)c2c(=O)cc(-c3ccccc3)oc2c1 [5,7-Di-O-methoxychrysin, 5,7-di-O-methoxychrysin]
inhibitory activity on Amadori compound formation, fold higher than positive control AG [1]: 13.92 fold

IC50 [1]: 17.4 µM
IC50 (AGE formation): 25 µM
IC50 (AGEs cross-linking): > 2000 µM
solubility at 1 h [2]: 30 µM (≈ 7.63 µg/mL)
Structure (SMILES): O=c1cc(-c2ccccc2)oc2cc(O)cc(O)c12 [Chrysin, 5,7-dihydroxyflavone]
inhibitory activity on Amadori compound formation, fold higher than positive control AG [1]: 6.30 fold
activity against AGE formation, fold higher than AG (AGE formation; relative to AG (IC50 = 136.79 μM)): 5.48 fold
inhibitory activity against AGEs cross-linking (AGEs cross-linking; at a concentration of 10.0 mg/mL): no inhibitory activities
HPLC area percentage of chrysin-di-MGO adduct [5, 6]: 0.0%
HPLC area percentage of chrysin-mono-MGO adduct [5, 6]: 1.7%
HPLC area percentage of chrysin-di-MGO adduct [5, 7]: 0.1%
HPLC area percentage of chrysin-mono-MGO adduct [5, 7]: 2.9%
HPLC area percentage of chrysin-di-MGO adduct [5, 8]: 0.1%
HPLC area percentage of chrysin-mono-MGO adduct [5, 8]: 4.0%
HPLC area percentage of chrysin-di-MGO adduct [5, 9]: 0.2%
HPLC area percentage of chrysin-mono-MGO adduct [5, 9]: 7.6%
HPLC area percentage of chrysin-mono-MGO adduct ([5]; chrysin:MGO 1:0.1, incubation 12 h, listed as CS): 8%
HPLC area percentage of chrysin-di-MGO adduct [5, 10]: 1.1%
HPLC area percentage of chrysin-mono-MGO adduct [5, 10]: 19.9%
HPLC area percentage of chrysin-di-MGO adduct [5, 11]: 2.9%
HPLC area percentage of chrysin-mono-MGO adduct [5, 11]: 27.2%
HPLC area percentage of chrysin-di-MGO adduct [5, 12]: 0.0%
HPLC area percentage of chrysin-mono-MGO adduct [5, 12]: 4.1%
HPLC area percentage of chrysin-di-MGO adduct [5, 13]: 0.2%
HPLC area percentage of chrysin-mono-MGO adduct [5, 13]: 7.7%
HPLC area percentage of chrysin-di-MGO adduct [5, 14]: 0.5%
HPLC area percentage of chrysin-mono-MGO adduct [5, 14]: 13.1%
HPLC area percentage of chrysin-di-MGO adduct [5, 15]: 1.1%
HPLC area percentage of chrysin-mono-MGO adduct [5, 15]: 21.4%
HPLC area percentage of chrysin-mono-MGO adduct ([5]; chrysin:MGO 1:0.5, incubation 12 h, listed as CS): 21%
HPLC area percentage of chrysin-di-MGO adduct [5, 16]: 4.1%
HPLC area percentage of chrysin-mono-MGO adduct [5, 16]: 36.5%
HPLC area percentage of chrysin-di-MGO adduct [5, 17]: 7.6%
HPLC area percentage of chrysin-mono-MGO adduct [5, 17]: 45.8%
HPLC area percentage of chrysin-di-MGO adduct [5, 18]: 0.1%
HPLC area percentage of chrysin-mono-MGO adduct [5, 18]: 5.0%
HPLC area percentage of chrysin-di-MGO adduct [5, 19]: 0.3%
HPLC area percentage of chrysin-mono-MGO adduct [5, 19]: 10.8%
HPLC area percentage of chrysin-di-MGO adduct [5, 20]: 0.7%
HPLC area percentage of chrysin-mono-MGO adduct [5, 20]: 18.1%
HPLC area percentage of chrysin-di-MGO adduct [5, 21]: 1.5%
HPLC area percentage of chrysin-mono-MGO adduct [5, 21]: 29.5%
HPLC area percentage of chrysin-mono-MGO adduct ([5]; chrysin:MGO 1:1, incubation 12 h, listed as CS): 30%
HPLC area percentage of chrysin-di-MGO adduct [5, 22]: 6.4%
HPLC area percentage of chrysin-mono-MGO adduct [5, 22]: 45.1%
HPLC area percentage of chrysin-di-MGO adduct [5, 23]: 11.6%
HPLC area percentage of chrysin-mono-MGO adduct [5, 23]: 55.0%
HPLC area percentage of chrysin-di-MGO adduct [5, 24]: 0.3%
HPLC area percentage of chrysin-mono-MGO adduct [5, 24]: 12.4%
HPLC area percentage of chrysin-di-MGO adduct [5, 25]: 0.8%
HPLC area percentage of chrysin-mono-MGO adduct [5, 25]: 19.0%
HPLC area percentage of chrysin-di-MGO adduct [5, 26]: 1.7%
HPLC area percentage of chrysin-mono-MGO adduct [5, 26]: 26.7%
HPLC area percentage of chrysin-di-MGO adduct [5, 27]: 3.6%
HPLC area percentage of chrysin-mono-MGO adduct [5, 27]: 35.6%
HPLC area percentage of chrysin-mono-MGO adduct ([5]; chrysin:MGO 1:5, incubation 12 h, listed as CS): 36%
HPLC area percentage of chrysin-di-MGO adduct [5, 28]: 15.9%
HPLC area percentage of chrysin-mono-MGO adduct [5, 28]: 49.1%
HPLC area percentage of chrysin-di-MGO adduct [5, 29]: 25.2%
HPLC area percentage of chrysin-mono-MGO adduct [5, 29]: 57.5%
HPLC area percentage of chrysin-di-MGO adduct [5, 30]: 0.5%
HPLC area percentage of chrysin-mono-MGO adduct [5, 30]: 11.9 ^a %
HPLC area percentage of chrysin-di-MGO adduct [5, 31]: 1.0%
HPLC area percentage of chrysin-mono-MGO adduct [5, 31]: 21.0%
HPLC area percentage of chrysin-di-MGO adduct [5, 32]: 1.9%
HPLC area percentage of chrysin-mono-MGO adduct [5, 32]: 31.9%
HPLC area percentage of chrysin-di-MGO adduct [5, 33]: 5.7%
HPLC area percentage of chrysin-mono-MGO adduct [5, 33]: 42.1%
HPLC area percentage of chrysin-di-MGO adduct [5, 34]: 6%
HPLC area percentage of chrysin-mono-MGO adduct [5, 34]: 42%
HPLC area percentage of chrysin-di-MGO adduct [5, 35]: 17.3%
HPLC area percentage of chrysin-mono-MGO adduct [5, 35]: 57.4%
HPLC area percentage of chrysin-di-MGO adduct [5, 36]: 29.7%
HPLC area percentage of chrysin-mono-MGO adduct [5, 36]: 63.9%
HPLC area percentage of chrysin-di-MGO adduct [5, 37]: 30%
HPLC area percentage of chrysin-mono-MGO adduct [5, 37]: 64%
HPLC area percentage of chrysin-di-MGO adduct [5, 38]: 29.69%
HPLC area percentage of chrysin-mono-MGO adduct [5, 38]: 63.86%
CS–di MGO adduct formation across ratios ([5]; ratios shown in Table 2B): 0.2–3%
